Experiment [1] has as its system SKOV-3 human ovary adenocarcinoma cells. As to the kind of experiment: Cytotoxicity (MTT growth inhibition) in SKOV-3. The format is cell-based. As to conditions: SK-OV-3, 1 h incubation, wash, then 6 days at 37 °C without drug, 128 pM to 10 μM, performed twice in triplicate. The procedure: (§1) Growth inhibition was assessed by 3-(4,5-dimethylthiazol-2-yl)-2,5-diphenyltetrazolium bromide (MTT). […] The experiment was performed twice in triplicate.
(§2) EC50 values were calculated by non-linear regression analysis using Graph Pad Prism 5.03 software.

Experiment [2] has as its system orthotopic MDA-MB 231-luc2 tumors. The experiment is described as follows: Tumor growth in orthotopic MDA-MB 231-luc2 mouse model. The experiment is classed as in vivo, athymic nude mice. Conditions: 2.86 μmol/Kg i.v. every 4 days.
Procedure: MDA-MB 231-luc2 cells were injected orthotopically in the mammary fat pads of female athymic nude mice. […] Tumor growth was monitored by measuring volumes every 4 days with a caliber rule and by imaging luciferase reporter expression in tumor cells with a Photon Imager system at 8-day intervals.
Orthotopic breast tumors were established by injecting 1 × 10^6 MDA-MB 231-luc2 cells into the fourth mammary fat pad of athymic nude mice (Harlan Laboratories). Tumor growth was monitored every four days by measuring two perpendicular diameters with caliber. Tumor volume (V) was calculated by the following equation: V = (a^2 × b)/2, where “a” is the width of the tumor (small diameter), and b the length (large diameter), both in millimeters[22].
Treatments were started when the tumors reached at least 80 mm^3 in volume.
Tumor growth was also monitored by imaging luciferase reporter expression in tumor cells. To track MDA-MB 231-luc2 cells, bioluminescent optical imaging was performed using a Photon Imager system (Biospace Lab, Paris, France) including a cooled charge-coupled device (CCD) camera. Prior to imaging, mice were anaesthetized by intraperitoneal (i.p.) injection of 275 mg/kg Avertin. […] Bioluminescence was quantified by automatic measurement. ROI optical images were analyzed with M3 Vision software (Biospace Lab, Paris, France).
Experiment [3] has as its system MDA-MB 231 human breast adenocarcinoma cells. As to the kind of experiment: Cytotoxicity (MTT growth inhibition) in MDA-MB 231. The format is cell-based. Conditions: 1 h incubation, wash, then 6 days at 37 °C without drug, 128 pM to 10 μM, performed twice in triplicate. The procedure: as §1, §2

`CC(=O)O[C@H]1C(=O)[C@@]2(C)[C@H]([C@H](OC(=O)c3ccccc3)[C@]3(O)C[C@H](OC(=O)[C@H](O)[C@@H](NC(=O)c4ccccc4)c4ccccc4)C(C)=C1C3(C)C)[C@]1(OC(C)=O)CO[C@@H]1C[C@@H]2O` [PTX, Paclitaxel]: the concentration for a half-maximal effect (EC50) in experiment [1] came to 29 nM; in experiment [3], 62 nM. Further, the “Slope of average tumor volume (percentage of the volume at day 4) versus time” value in experiment [2] (days 4, 8, 12 and 16, n = 5 mice) is recorded as 5.5. Besides, the “Effect on tumor growth (in words)” value in experiment [2] (during treatment, days 4 to 16) is “clear reduction in tumor growth with respect to controls, but not tumor regression”.

As a reminder, the EC50 is the concentration that produces a half-maximal response. High values mean a less potent agent, low ones a more potent agent.

(Values after PMC4667195, “Tumor-selective peptide-carrier delivery of Paclitaxel increases in vivo activity of the drug” (Scientific Reports, 2015).)
